In PubChem BioAssay (NCI) one finds TGI and GI50 data, which are given here for 13 molecules.

“And” between values parts separate entries of the source, which are not always exact repeats. Equal values may be shown once.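 Dose response: 5 concentrations. Exposure: 48 h. Format: 96-well plates. Endpoint: linear interpolation; highest concentration if not reached. At the GI50, growth is halved. TGI: concentration producing complete growth inhibition.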

Among the test systems are SNB-19 CNS; SK-OV-3 ovarian; RXF 393 renal; U251 CNS; SN12C renal; TK-10 renal; OVCAR-3 ovarian; HCC-2998 colon; CCRF-CEM leukemia.
What all share (assay): NCI-60 cell line screen, 48 h

Turning to `CC(C)(C1=NC(C(C)(C)C)CO1)C1=N[C@@H](C(C)(C)C)CO1` (some centres undefined), the TGI with SNB-19 CNS, with SK-OV-3 ovarian, in the assay with RXF 393 renal, with U251 CNS, in the assay with SN12C renal and with TK-10 renal was above 100 µM each time. For the same molecule, the TGI with OVCAR-3 ovarian, with HCC-2998 colon and with CCRF-CEM leukemia was above 100 µM each time.
On to `Cc1c2cc[n+](C)cc2c(C)c2c1[nH]c1ccc(OCC(F)(F)F)cc12`, for which the TGI in the assay on SNB-19 CNS was 3.02 µM; with SK-OV-3 ovarian, above 100 µM; with RXF 393 renal, above 100 µM; with U251 CNS it was 1.49 µM; in the assay on TK-10 renal it was above 100 µM; in the assay with OVCAR-3 ovarian, 25 µM and > 100 µM. For the same molecule, the TGI was 34.5 µM and > 100 µM in the assay on HCC-2998 colon; above 100 µM in the assay with CCRF-CEM leukemia. Moreover, the GI50 in the assay with RXF 393 renal was above 100 µM; with SN12C renal, 123 nM; in the assay on TK-10 renal it was 13.5 µM and > 100 µM.
Consider `CSCSCC(CO)NC(=O)/C=C\c1c(C)[nH]c(=O)[nH]c1=O` (centres undefined), for which the TGI in the assay on SNB-19 CNS amounted to 197 µM; with SK-OV-3 ovarian, 74 µM; in the assay with RXF 393 renal, 249 µM; in the assay with U251 CNS it was 201 µM; in the assay with SN12C renal it was 102 µM; with OVCAR-3 ovarian, 14 µM. Besides, the values for the TGI in the assay on HCC-2998 colon and with CCRF-CEM leukemia were 52.9 µM and 37.4 µM, respectively. For the same molecule, the GI50 in the assay with OVCAR-3 ovarian is 1410 nM.
Take `c1ccc(C2N=C(c3ccccn3)C(c3ccccn3)=NC2c2ccccc2)cc1` (centres undefined): the TGI in the assay with SNB-19 CNS, in the assay with SK-OV-3 ovarian, with RXF 393 renal, with U251 CNS, in the assay with TK-10 renal and in the assay on OVCAR-3 ovarian was above 100 µM each time. Moreover, the TGI in the assay on HCC-2998 colon and with CCRF-CEM leukemia was above 100 µM throughout.
Turning to `COC(=O)c1c(CC(=O)OC(C)C)cc2n(c1=O)Cc1c-2nc2ccccc2c1OC`, the TGI is above 100 µM in the assay with SNB-19 CNS; above 100 µM in the assay with SK-OV-3 ovarian; 99.6 µM in the assay on RXF 393 renal; above 100 µM with U251 CNS; above 100 µM with SN12C renal; above 100 µM in the assay on TK-10 renal. Besides, the TGI in the assay on OVCAR-3 ovarian, in the assay on HCC-2998 colon and with CCRF-CEM leukemia was above 100 µM in each case.
For `N/C(=N\N=C/c1c(O)cc(O)cc1O)NO`, the TGI in the assay on SNB-19 CNS, with SK-OV-3 ovarian, in the assay on RXF 393 renal, in the assay on U251 CNS, in the assay on SN12C renal and in the assay on OVCAR-3 ovarian was above 100 µM each time. Moreover, the results for the TGI with HCC-2998 colon and in the assay on CCRF-CEM leukemia were above 100 µM and above 92.6 µM, respectively.
Take `O=c1[nH]c(=S)[nH]c2c1CCCN2`: the TGI in the assay with SNB-19 CNS, with SK-OV-3 ovarian, in the assay on RXF 393 renal, in the assay on U251 CNS, in the assay with SN12C renal and in the assay on TK-10 renal was above 100 µM each time. For the same molecule, the TGI in the assay on OVCAR-3 ovarian and in the assay on CCRF-CEM leukemia was above 100 µM each time.
In the case of `C=CCCCN(C(=O)c1ccccc1)c1ccc(C(=O)OC)o1`, the TGI in the assay with SNB-19 CNS, with SK-OV-3 ovarian, in the assay with RXF 393 renal, in the assay with SN12C renal and in the assay with TK-10 renal was above 100 µM each time.
As for `Cc1ccc(N2Cc3c(ccc4ccccc34)OP2(=S)N2CCCC2)cc1` (centres undefined), the TGI in the assay with SNB-19 CNS was above 100 µM; with SK-OV-3 ovarian, above 100 µM; in the assay on RXF 393 renal, above 100 µM; with U251 CNS, above 100 µM; in the assay with SN12C renal, above 100 µM; in the assay on OVCAR-3 ovarian, above 55.7 µM. The TGI in the assay with HCC-2998 colon and in the assay with CCRF-CEM leukemia was above 100 µM each time.
For `O=Cn1c2ccccc2c2ccccc21`, the TGI with SNB-19 CNS, in the assay with SK-OV-3 ovarian, in the assay with RXF 393 renal, with U251 CNS, with SN12C renal and with TK-10 renal was above 100 µM throughout. Further, the TGI in the assay on OVCAR-3 ovarian, with HCC-2998 colon and in the assay with CCRF-CEM leukemia was above 100 µM throughout.
For the molecule `CCCCn1c(-c2ccccc2)cs/c1=N\NC(=O)Cn1c(C)nc2ccccc21`, the TGI is above 100 µM in the assay on SNB-19 CNS; above 100 µM in the assay on SK-OV-3 ovarian; 94.1 µM in the assay with RXF 393 renal; above 100 µM in the assay on U251 CNS; above 100 µM in the assay on SN12C renal; above 100 µM with TK-10 renal. The TGI in the assay on OVCAR-3 ovarian is above 100 µM; in the assay on HCC-2998 colon, above 100 µM; in the assay with CCRF-CEM leukemia, 99.4 µM.
As for `O=c1cc(-c2ccccc2)oc2cc(OCCCCCCCCCCOc3ccc4c(=O)cc(-c5ccccc5)oc4c3)ccc12`, the TGI in the assay on SNB-19 CNS, in the assay with SK-OV-3 ovarian, in the assay on U251 CNS, in the assay with SN12C renal, in the assay with OVCAR-3 ovarian and in the assay on HCC-2998 colon was above 100 µM each time. Further, the TGI in the assay on CCRF-CEM leukemia was above 100 µM.
In the case of `C/C(=N/NC(N)=S)C(CN1CCOCC1)C(C1=C(O)c2ccccc2OC1)c1ccccc1` (centres undefined), the TGI with SNB-19 CNS, in the assay on SK-OV-3 ovarian, with RXF 393 renal, with U251 CNS, in the assay on SN12C renal and in the assay on TK-10 renal was above 100 µM each time. Moreover, the TGI with OVCAR-3 ovarian, in the assay on HCC-2998 colon and in the assay with CCRF-CEM leukemia was above 100 µM in each case.
